Laboratory results as given in US20250295798A1, “LIGAND-DRUG CONJUGATE OF EXATECAN ANALOGUE, AND MEDICAL USE THEREOF” (BeiGene Switzerland GmbH, priority 2022, published 2025).
Where a name gives a salt, the structure may show the parent alone.

How the values were obtained:
A375 = assay: Compounds cellular killing in A375; assay type: cell-based, human; details: A375, 6 days, Cell Titer-Glo
Procedure: (§1) Seeding cells A375 (1E3/well) or Calu-6 (2E3/well) into 96-well plate (Greiner: 655090), 100 ul/well. Incubation at 37° C., 5% CO2, overnight.
(§2) Adding the fresh growth-medium containing the varying concentrations of compounds, 50 ul/well.
(§3) Incubation at 37° C., 5% CO2, 6 days.
(§4) The cell viability detected by Cell Titer-Glo (Promega, G7573). Add 70 µL/well of CellTiter-Glo® Reagent in each well.
(§5) Allow the plates to incubate at room temperature for 10 minutes to stabilize luminescent signal.
(§6) Analyze with Microplate Reader.
(§7) Seeding cells A375 ([…] or Calu-6 (2E3/well) into 96-well plate (Greiner: 655090), 100 ul/well. Incubation at 37° C., […], overnight.

Calu-6 = assay: Compounds cellular killing in Calu-6; assay type: cell-based, human; details: Homo sapiens, Calu-6, 6 days, Cell Titer-Glo
Procedure: as §1, §2, §3, §4, §5, §6, §7

Compound	EC50 (A375; Homo sapiens, A-375, […]) [nM]	Emax (A375; Homo sapiens, A-375, […]) [%]	EC50 (Calu-6; Calu-6, […]) [nM]	Emax (Calu-6; Calu-6, […]) [%]	EC50 (A375) [nM]	EC50 (A375; Homo sapiens, A-375) [nM]	Emax (A375; Homo sapiens, A-375) [%]	EC50 (Calu-6) [nM]
CC[C@@]1(O)C(=O)OCc2c1cc1n(c2=O)Cc2c-1nc1cc(F)c(C)c3c1c2[C@@H](NC(=O)CO)CC3 [Example 1-A, reference compound]	2.2	98.9	1	98.9	–	–	–	–
CC[C@@]1(O)C(=O)OCc2c1cc1n(c2=O)Cc2c-1nc1cc(F)c(C)c3c1c2C(CCCN)CC3 (stereo partly drawn) [Example 2-42, (9S)-1-(3-aminopropyl)-9-ethyl-5-fluoro-9-hydroxy-4-methyl-1,2,3,9,12,15-hexahydro-10H,13H-benzo[de]pyrano[3′,4′:6,7]indolizino[1,2-b]quinoline-10,13-dione formate]	20.7	99.6	2.8	99.2	–	–	–	–
CC[C@@]1(O)C(=O)OCc2c1cc1n(c2=O)Cc2c-1nc1cc(F)c(C)c3c1c2C(CNCCO)CC3 (stereo partly drawn) [Example 2-53, Nbenzyl (9S)-9-ethyl-5-fluoro-9-hydroxy-1-(((2-hydroxyethyl)amino)methyl)-4-methyl-1,2,3,9,12,15-hexahydro-10H,13H-benzo[de]pyrano[3′,4′:6,7]indolizino[1,2-b]quinoline-10,13-dione]	5.1	99.9	1.6	98.7	–	–	–	–
CC[C@@]1(O)C(=O)OCc2c1cc1n(c2=O)Cc2c-1nc1cc(C)c(C)c3c1c2[C@@H](NC(=O)CO)CC3 [Example 2-1, N-((1S,9S)-9-ethyl-9-hydroxy-4,5-dimethyl-10,13-dioxo-2,3,9,10,13,15-hexahydro-1H,12H-benzo[de]pyrano[3′,4′:6,7]indolizino[1,2-b]quinolin-1-yl)-2-hydroxyacetamide]	23	98	10	98	–	–	–	–
CC[C@@]1(O)C(=O)OCc2c1cc1n(c2=O)Cc2c-1nc1cc(F)c(C)c3c1c2[C@@H](NC(=O)C[C@@H](O)C[N+](C)(C)C)CC3 [Example 2-15, (R)-4-(((1S,9S)-9-ethyl-5-fluoro-9-hydroxy-4-methyl-10,13-dioxo-2,3,9,10,13,15-hexahydro-1H,12H-benzo[de]pyrano[3′,4′:6,7]indolizino[1,2-b]quinolin-1-yl)amino)-2-hydroxy-N,N,N-trimethyl-4-oxobutan-1-aminium]	442	73.5	179	90.1	–	–	–	–
CC[C@@]1(O)C(=O)OCc2c1cc1n(c2=O)Cc2c-1nc1cc(F)c(C)c3c1c2[C@@H](NC(=O)[C@@H]1C[C@H](O)CN1C)CC3 [Example 2-37, (2S,4S)—N-((1S,9S)-9-ethyl-5-fluoro-9-hydroxy-4-methyl-10,13-dioxo-2,3,9,10,13,15-hexahydro-1H,12H-benzo[de]pyrano[3′,4′:6,7]indolizino[1,2-b]quinolin-1-yl)-4-hydroxy-1-methylpyrrolidine-2-carboxamide]	3.7	99.9	1.5	98.8	–	–	–	–
CC[C@@]1(O)C(=O)OCc2c1cc1n(c2=O)Cc2c-1nc1cc(F)c(C)c3c1c2[C@@H](NC(=O)C[C@H](O)CC#N)CC3 [Example 2-20, (R)-4-cyano-N-((1S,9S)-9-ethyl-5-fluoro-9-hydroxy-4-methyl-10,13-dioxo-2,3,9,10,13,15-hexahydro-1H,12H-benzo[de]pyrano[3′,4′:6,7]indolizino[1,2-b]quinolin-1-yl)-3-hydroxybutanamide]	18.5	98	5.6	98.1	–	–	–	–
CC[C@@]1(O)C(=O)OCc2c1cc1n(c2=O)Cc2c-1nc1cc(Cl)cc3c1c2[C@@H](NC(=O)CO)CC3 [Example 2-12, N-((1S,9S)-5-chloro-9-ethyl-9-hydroxy-10,13-dioxo-2,3,9,10,13,15-hexahydro-1H,12H-benzo[de]pyrano[3′,4′:6,7]indolizino[1,2-b]quinolin-1-yl)-2-hydroxyacetamide]	6.8	99.9	4.4	98.9	–	–	–	–
CC[C@@]1(O)C(=O)OCc2c1cc1n(c2=O)Cc2c-1nc1cc(F)c(C)c3c1c2[C@@H](N1CCCC1CO)CC3 (single isomer, unassigned) [Example 2-49]	–	99.9	0.2	99.1	0.7	–	–	–
CC[C@@]1(O)C(=O)OCc2c1cc1n(c2=O)Cc2c-1nc1cc(Cl)cc3c1c2[C@@H](N)CC3 [Example 1-14, (1S,9S)-1-amino-5-chloro-9-ethyl-9-hydroxy-1,2,3,9,12,15-hexahydro-10H,13H-benzo[de]pyrano[3′,4′:6,7]indolizino[1,2-b]quinoline-10,13-dione]	–	–	–	98.8	–	2.5	100	0.8
CC[C@@]1(O)C(=O)OCc2c1cc1n(c2=O)Cc2c-1nc1cc3c(c4c1c2[C@@H](NC(=O)CO)CC4)OC(F)(F)O3 [Example 2-27, N-((1S,10S)-10-ethyl-5,5-difluoro-10-hydroxy-11,14-dioxo-2,3,10,11,14,16-hexahydro-1H,13H-benzo[de][1,3]dioxolo[4,5-g]pyrano[3′,4′:6,7]indolizino[1,2-b]quinolin-1-yl)-2-hydroxyacetamide]	10.7	99.5	3.9	99.5	–	–	–	–
CC[C@@]1(O)C(=O)OCc2c1cc1n(c2=O)Cc2c-1nc1cc(F)c(C)c3c1c2[C@@H](n1cc(CO)nn1)CC3 [Example 2-22, (1S,9S)-9-ethyl-5-fluoro-9-hydroxy-1-(4-(hydroxymethyl)-1H-1,2,3-triazol-1-yl)-4-methyl-1,2,3,9,12,15-hexahydro-10H,13H-benzo[de]pyrano[3′,4′:6,7]indolizino[1,2-b]quinoline-10,13-dione]	10.4	97.7	5.6	98	–	–	–	–
CC[C@@]1(O)C(=O)OCc2c1cc1n(c2=O)Cc2c-1nc1cc(F)c(C)c3c1c2C(C(=O)NCCO)CC3 (single isomer, unassigned) [Example 2-52]	16.1	98.9	6	97.3	–	–	–	–
CC[C@@]1(O)C(=O)OCc2c1cc1n(c2=O)Cc2c-1nc1cc(F)c(Cl)c3c1c2[C@@H](NC(=O)C(C)(C)CO)CC3 [Example 2-34, N-((1S,9S)-4-chloro-9-ethyl-5-fluoro-9-hydroxy-10,13-dioxo-2,3,9,10,13,15-hexahydro-1H,12H-benzo[de]pyrano[3′,4′:6,7]indolizino[1,2-b]quinolin-1-yl)-3-hydroxy-2,2-dimethylpropanamide]	0.8	98.9	0.5	99.4	–	–	–	–
CC[C@@]1(O)C(=O)OCc2c1cc1n(c2=O)Cc2c-1nc1cc(F)c(C)c3c1c2C(CCCO)CC3 (stereo partly drawn) [Example 2-14, (9S)-9-ethyl-5-fluoro-9-hydroxy-1-(3-hydroxypropyl)-4-methyl-1,2,3,9,12,15-hexahydro-10H,13H-benzo[de]pyrano[3′,4′:6,7]indolizino[1,2-b]quinoline-10,13-dione]	–	–	–	99	–	0.3	100	0.1
CC[C@@]1(O)C(=O)OCc2c1cc1n(c2=O)Cc2c-1nc1cc(F)c(C)c3c1c2[C@@H](NC(=O)[C@@H]1C[C@H](O)CN1C(C)=O)CC3 [Example 2-38, (2S,4S)-1-acetyl-N-((1S,9S)-9-ethyl-5-fluoro-9-hydroxy-4-methyl-10,13-dioxo-2,3,9,10,13,15-hexahydro-1H,12H-benzo[de]pyrano[3′,4′:6,7]indolizino[1,2-b]quinolin-1-yl)-4-hydroxypyrrolidine-2-carboxamide]	30.9	98.7	12.9	96.4	–	–	–	–
CC[C@@]1(O)C(=O)OCc2c1cc1n(c2=O)Cc2c-1nc1cc(F)c(C)c3c1c2[C@@H](NC(=O)CC(O)C[N+](C)(C)C)CC3 (stereo partly drawn) [Example 2-16, 4-(((1S,9S)-9-ethyl-5-fluoro-9-hydroxy-4-methyl-10,13-dioxo-2,3,9,10,13,15-hexahydro-1H,12H-benzo[de]pyrano[3′,4′:6,7]indolizino[1,2-b]quinolin-1-yl)amino)-2-hydroxy-N,N,N-trimethyl-4-oxobutan-1-aminium]	487	77.1	247	87.9	–	–	–	–
CC[C@@]1(O)C(=O)OCc2c1cc1n(c2=O)Cc2c-1nc1cc(F)c(C)c3c1c2C(C(=O)N1CCC1CO)CC3 (stereo partly drawn) [Example 2-47, (9S)-9-ethyl-5-fluoro-9-hydroxy-1-(2-(hydroxymethyl)azetidine-1-carbonyl)-4-methyl-1,2,3,9,12,15-hexahydro-10H,13H-benzo[de]pyrano[3′,4′:6,7]indolizino[1,2-b]quinoline-10,13-dione]	6.7	99.7	1.8	99.5	–	–	–	–
CC[C@@]1(O)C(=O)OCc2c1cc1n(c2=O)Cc2c-1nc1cc(F)c(C)c3c1c2[C@@H](NC(=O)c1ccc(CO)o1)CC3 [Example 2-19, N-((1S,9S)-9-ethyl-5-fluoro-9-hydroxy-4-methyl-10,13-dioxo-2,3,9,10,13,15-hexahydro-1H,12H-benzo[de]pyrano[3′,4′:6,7]indolizino[1,2-b]quinolin-1-yl)-5-(hydroxymethyl)furan-2-carboxamide]	–	–	–	99.3	–	4.6	99.7	1
CC[C@@]1(O)C(=O)OCc2c1cc1n(c2=O)Cc2c-1nc1cc(Cl)cc3c1c2[C@H](NC(=O)CO)CC3 [Example 2-13, N-((1R,9S)-5-chloro-9-ethyl-9-hydroxy-10,13-dioxo-2,3,9,10,13,15-hexahydro-1H,12H-benzo[de]pyrano[3′,4′:6,7]indolizino[1,2-b]quinolin-1-yl)-2-hydroxyacetamide]	7.9	99.6	5.8	98.4	–	–	–	–
